From patent publication US20250235444A1, “COMPOSITION FOR PREVENTING OR TREATING VALVULAR CALCIFICATION” (MOKPO NATIONAL UNIVERSITY INDUSTRY-ACADEMIA COOPERATION …, priority 2022, published 2025)

How the values were obtained:
[1] = tested on: porcine valvular interstitial cells; assay: Calcification of porcine valvular interstitial cells induced by NaH2PO4 (PCM), Alizarin red staining and CPC analysis; type: cell-based; settings: pro-calcifying medium with 2 mM NaH2PO4, 10 days
Method: (§1) To isolate porcine valvular interstitial cells, porcine heart valves were treated with collagenase for 15 minutes, after which endothelial cells were removed and cultured again for 24 hours. The cells obtained through centrifugation are valvular interstitial cells and were cultured in DMEM (high-glucose, Gibco) medium containing 0.1% amphotericin B, 1% penicillin-streptomycin, and 5% FBS.
To induce calcification, cells were seeded at a density of 1×10^4/ml in a 96-well culture vessel, and calcification was induced for a total of 10 days. […]
To quantify Alizarin Red stain, after washing twice with PBS, it was fixed with cold 70% ethanol at 4° C. for 1 hour, and after washing with dH2O, the sample was treated with 10% CPC (cetylpyridinium chloride, Sigma-Aldrich) for 1 hour (shaken and in the dark), transferred to a new measuring container, and measured for absorbance at 550 nm.
Interstitial cells were isolated from porcine heart valves and the inhibitory effect of paquinimod or tasquinimod on valvular calcification was confirmed according to the concentration. Porcine valve-derived cells were induced to calcify by NaH2PO4, and the degree of valvular calcification was measured after treatment with paquinimod or tasquinimod at different concentrations under the same conditions.

Osteopontin (OPN) = assay: Western blot analysis of calcification marker osteopontin in calcification-induced valvular interstitial cells; type: cell-based, porcine; settings: compared to the calcification-induced experimental group; calcification induced for 10 days; FIG. 3
Method: as §1
(§2) To induce calcification, cells were seeded at a density of 1×10^4/ml in a 96-well culture vessel, and calcification was induced for a total of 10 days. Control medium (CM) used DMEM containing 0.1% amphotericin B, 1% penicillin-streptomycin, and 5% FBS and the pro-calcifying medium (PCM) was a control medium with 2 mM NaH2PO4 added. The medium was replaced every 2 days.
(§3) To observe if anti-calcification substances inhibit calcification, 10 uM or 100 uM paquinimod or 10 uM tasquinimod were treated, and 10% DMSO (Sigma-Aldrich) was treated as a control, and then cultured in a cell incubator at 37° C. with a 5% CO2 concentration.
(§4) After seeding cells at 5×10^4/mL in a 6-well plate, calcification was induced for a total of 10 days. […]
(§5) To lyse the cells, 1×RIPA buffer was added to each well and lysed for 10 minutes. […] Protein quantification of the obtained cell lysates was measured using Bio-Rad DC protein reagent. […]

[2] = tested on: RUNX2 (Runt-related transcription factor2); assay: Western blot analysis of calcification marker RUNX2 in calcification-induced valvular interstitial cells; type: cell-based, porcine; settings: compared to the calcification-induced experimental group; calcification induced for 10 days; FIG. 3
Method: as §1, §2, §3, §4, §5

| SMILES | degree of valvular calcification (Alizarin red staining and CPC analysis) ([1]; 10 uM or more of paquinimod (10 uM or 100 uM), FIG. 1) | expression of osteopontin (Western blot) (Osteopontin (OPN)) | expression of RUNX2 (Western blot) [2] | degree of valvular calcification ([1]; 10 uM tasquinimod, FIG. 2) |
| --- | --- | --- | --- | --- |
| CCc1cccc2c1c(O)c(C(=O)N(CC)c1ccccc1)c(=O)n2C [paquinimod] | inhibition of valvular calcification in a concentration-dependent manner | significantly reduced | significantly reduced | – |
| COc1cccc2c1c(O)c(C(=O)N(C)c1ccc(C(F)(F)F)cc1)c(=O)n2C [tasquinimod] | – | – | – | had an inhibitory effect on valvular calcification |
